We go through ten compounds from patent US20210198201A1, “Orally Active Melanocortin Receptor-4 Compounds” (Palatin Technologies, Inc., priority 2018, published 2021).

The term pKi denotes the negative decadic logarithm of the Ki, by convention in mol/L. A high value points to a low Ki. Usually pEC50 stands for −log10 of the EC50, conventionally taken in molar units. Lower therefore signals a high EC50.

pEC50, pKi: −log10 of the molar value. Marks after values point to notes of the source that are not given here.

The target in experiment [1] is T1, MC4r (Homo sapiens, UniProt P32245). The experiment is described as follows: cAMP functional study in human MC4r expression system approximating maximal physiologic receptor densities. It counts as cell-based. On the set-up: host or cells: TREx-293. The following applies: low receptor density human MC4r system; for Emax: read-out: relative efficacy, compared to NDP-α-MSH. As for the experimental part:
Assay for Agonist Activity. Accumulation of intracellular cAMP was examined as a measure of the ability of the peptides of the present invention to elicit a functional response in HEK-293 cells that express MC4-R. Confluent HEK-293 cells that express recombinant hMC4-R were detached from culture plates by incubation in enzyme-free cell dissociation buffer. Dispersed cells were suspended in Hanks' Balanced Salt Solution containing 10 mM HEPES (pH 7.5), 1 mM MgCl2, 1 mM glutamine, 0.5% albumin and 0.3 mM 3-isobutyl-1-methyl-xanthine (IBMX), a phosphodiesterase inhibitor. The cells were plated in 96-well plates at a density of 0.5×10^5 cells per well and pre-incubated for 10 minutes. Cells were exposed for 15 minutes at 37° C. to peptides of the present invention dissolved in DMSO (final DMSO concentration of 1%) at a concentration range of 0.05-5000 nM in a total assay volume of 200 μL. NDP-α-MSH was used as the reference agonist. cAMP levels were determined by an HTRF® cAMP cell-based assay system from Cisbio Bioassays utilizing cryptate-labeled anti-cAMP and d2-labeled cAMP, with plates read on a Perkin-Elmer Victor plate reader at […]. Data analysis was performed by nonlinear regression analysis with Graph-Pad Prism® software. The maximum efficacies of the test peptides of the present invention were compared to that achieved by the reference melanocortin agonist NDP-αMSH.
Low Receptor Density Systems. In functional studies preferably a human MC4r expression system approximating maximal human physiologic receptor densities is employed. In one aspect, a tetracycline-regulated mammalian expression system that uses regulatory elements from the E. coli Tn10-encoded tetracycline (Tet) resistance operon was employed (T-REx™ System, Invitrogen). By use of the T-REx™ System, expression of the gene of interest, the human MC4-R gene, was repressed in the absence of tetracycline or doxycycline and induced in the presence of tetracycline or doxycycline, with receptor density being dependent on the concentration of tetracycline or doxycycline. See generally Yao F. et al: Tetracycline repressor, tetR, rather than the tetR-mammalian cell transcription factor fusion derivatives, regulates inducible gene expression in mammalian cells. Hum. Gene Ther. 9:1939-1950 (1998), incorporated here by reference. Regulation was based on the binding of tetracycline or doxycycline, a derivative of tetracycline, to the Tet repressor and derepression of the promoter controlling expression of the human MC4-R gene. In general tetracycline or related regulators, such as tetracycline-derivatives, may be used to induce the gene expression. An inducible expression plasmid for expression of human MC4-R gene under the control of the strong human cytomegalovirus immediate-early (CMV) promoter and two tetracycline operator 2 (TetO2) sites was employed, together with a regulatory plasmid, pcDNA6/TR, which encodes the Tet repressor (TetR) under the control of the human SV40 promoter. Thus, expression of the human MC4-R gene from the inducible expression vector was controlled by the strong CMV promoter into which 2 copies of the tet operator 2 (TetO2) sequence had been inserted in tandem. The TetO2 sequences consisted of 2 copies of 19-nucleotide sequence separated by a 2 base pair spacer. Each 19 nucleotide TetO2 sequence served as the binding site for 2 molecules of the Tet repressor. The expression vector pcDNA4/TO/MC4R was introduced into TREx-293 (Invitrogen, R710-07), a cell line stably expressing the tetracycline repressor pcDNA6/TR using lipofectamin 2000 reagent (Invitrogen, 11668-019). Alternatively, both the expression vector and repressor are introduced into host cells by standard transformation or transfection methods.

In experiment [2] the target is T1, MC4r. The experiment is described as follows: Competitive inhibition binding assay, MC4r. On the set-up: expressed in transfected cells; host or cells: HEK-293 (membrane homogenates). The following applies: binding studies. Here is the method: (§1) A competitive inhibition binding assay is performed using membrane homogenates prepared from HEK-293 cells that express recombinant hMC1ra, hMC4r, hMC3r, or hMC5r, and from B16-F10 mouse melanoma cells (containing endogenous MC1r). In the examples that follow, all values are for human recombinant receptors unless otherwise noted. Assays are performed in 96 well GF/B Millipore multiscreen filtration plates (MAFB NOB10) pre-coated with 0.5% bovine serum albumin (Fraction V). […] After incubation for 60 to 90 minutes at 37° C., the assay mixture is filtered and the membranes washed three times with ice-cold buffer. Filters are dried and counted in a gamma counter for bound radioactivity.
(§2) Maximal specific binding (100%) is defined as the difference in radioactivity (cpm) bound to cell membranes in the absence and presence of 1 μM NDP-α-MSH. […] Each assay is conducted in duplicate or triplicate and the actual mean values are described, with results less than 0% reported as 0%. Ki values for test compounds are determined using Graph-Pad Prism® curve-fitting software.
Competitive Binding Assay Using Eu-NDP-α-MSH. Alternatively, a competitive inhibition binding assay is performed employing Eu-NDP-α-MSH (PerkinElmer Life Sciences catalog No. AD0225) with determination by time-resolved fluorometry (TRF) of the lanthanide chelate. […] After incubation for 90 minutes at 37° C., the reaction was stopped by filtration over Acro Well 96-well filter plates (Pall Life Sciences). The filter plates were washed 4 times with 200 μL of ice-cold phosphate-buffered saline. DELFIA Enhancement solution (PerkinElmer Life Sciences) was added to each well. The plates were incubated on a shaker for 15 minutes and read at 340 nm excitation and 615 nm emission wavelengths. Each assay was conducted in duplicate and mean values were utilized. Ki values were determined by curve-fitting with Graph-Pad Prism® software using a one-site fixed-slope competition binding model.

The next experiment addresses T2, MC1r (Homo sapiens, UniProt Q01726).
T2 construct: expressed in transfected cells; host or cells: HEK-293 (membrane homogenates)
Kind of experiment: Competitive inhibition binding assay, MC1r. The conditions noted are these: binding studies. Here is the method: as §1, §2

The test system of another experiment is C57BL/6 male DIO mice. The experiment is described as follows: Body weight and food intake in vivo study in diet induced obese mice. On the set-up: species or system mouse. The following applies: for Body Weight Change (%) Mean / Food Intake - 24 Hours (g) Mean: 1 mg/kg subcutaneous twice daily. Here is the method:
Compound 7.1 was assessed in a body weight and food intake in vivo study in diet induced obese […] mice. C57BL/6 male DIO mice were utilized, that were 17 weeks of age on arrival. Animals were pre-conditioned on a high-fat diet for 11 weeks by Jackson Labs. […] Animals were single housed within a limited access rodent facility, and provided ad libitum with a commercial rodent diet and free access to drinking water. Animals were randomized into five groups, a vehicle group, three dose levels of compound 7.1 (3 mg/kg, 10 mg/kg and 30 mg/kg), and Peptide A, a positive control cyclic peptide of the formula Ac-Arg-cyclo(Orn-Asn-D-Phe-Arg-Trp-Glu)-NH2. Following three days of sham dosing, animals were dosed for three days, with vehicle or Compound 7.1 dosed orally once daily at within one hour of lights out in the AM, and Peptide A dosed by subcutaneous injection twice daily within one hour before lights out and six hours after lights out. Body weights were measured one hour prior to lights out, and feed weights were measured both one hour prior to lights out and six hours post lights out.
*p<0.05 vs. sham (vehicle control) using two-way ANOVA followed by Dunnett's post-test.
**p<0.01 vs sham (vehicle control) using two-way ANOVA followed by Dunnett's post-test.

T1 sequence (P32245 whole entry): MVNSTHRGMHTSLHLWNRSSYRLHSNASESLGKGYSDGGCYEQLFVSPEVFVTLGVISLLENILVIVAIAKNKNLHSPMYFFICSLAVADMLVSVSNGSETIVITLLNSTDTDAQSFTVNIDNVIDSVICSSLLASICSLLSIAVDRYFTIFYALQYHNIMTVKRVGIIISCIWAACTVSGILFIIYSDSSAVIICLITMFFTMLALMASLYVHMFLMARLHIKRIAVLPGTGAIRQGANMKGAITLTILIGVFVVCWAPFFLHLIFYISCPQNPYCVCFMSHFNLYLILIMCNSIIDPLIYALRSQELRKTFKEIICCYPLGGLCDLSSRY
T2 sequence (Q01726 whole entry): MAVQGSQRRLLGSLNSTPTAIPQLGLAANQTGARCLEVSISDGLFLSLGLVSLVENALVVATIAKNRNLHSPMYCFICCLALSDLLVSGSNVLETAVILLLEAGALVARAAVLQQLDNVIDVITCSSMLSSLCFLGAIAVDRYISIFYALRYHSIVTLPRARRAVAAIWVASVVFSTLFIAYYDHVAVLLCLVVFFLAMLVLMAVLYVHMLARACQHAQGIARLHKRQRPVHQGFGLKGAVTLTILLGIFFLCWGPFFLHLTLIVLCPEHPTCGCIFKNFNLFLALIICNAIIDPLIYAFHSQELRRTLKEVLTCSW

Regarding `CC(=O)N1CCC(N(CC(C)C)N2CCN(C(=O)[C@@H](Cc3ccc(Cl)cc3)NC(=O)C3(N)CC3)CC2)CC1` [Compound 7.2, N-[(1R)-2-[4-[(1-acetyl-4-piperidyl)-isobutyl-amino]piperazin-1-yl]-1-[(4-chlorophenyl)methyl]-2-oxo-ethyl]-1-amino-cyclopropanecarboxamide], the Emax on MC4r [1] came out at 3%. For the same compound, the pKi on MC4r [2] is 8.30; on MC1r, 7.40.

Regarding `CC(=O)N1CCC(N(CC(C)C)N2CCN(C(=O)[C@@H](Cc3ccc(Cl)cc3)NC(=O)C3(N)CCC3)CC2)CC1` [Compound 7.3, N-[(1R)-2-[4-[(1-acetyl-4-piperidyl)-isobutyl-amino]piperazin-1-yl]-1-[(4-chlorophenyl)methyl]-2-oxo-ethyl]-1-amino-cyclobutanecarboxamide], at MC4r [1], the Emax is 10%. On MC4r [2], this compound had a negative-log Ki (pKi) of 8.52.

Turning to `CC(=O)N1CCC(N(CC(C)C)N2CCN(C(=O)[C@@H](Cc3ccc(Cl)cc3)NC(=O)C3(N)CCCC3)CC2)CC1` [Compound 7.4, N-[(1R)-2-[4-[(1-acetyl-4-piperidyl)-isobutyl-amino]piperazin-1-yl]-1-[(4-chlorophenyl)methyl]-2-oxo-ethyl]-1-amino-cyclopentanecarboxamide], the Emax at MC4r [1] worked out at 10%. This compound also had a pKi on MC4r [2] of 8.40.

As to `CC(=O)N1CCC(N(CC(C)C)N2CCN(C(=O)[C@@H](Cc3ccc(Cl)cc3)NC(=O)C3(N)CCCCC3)CC2)CC1` [Compound 7.5, N-[(1R)-2-[4-[(1-acetyl-4-piperidyl)-isobutyl-amino]piperazin-1-yl]-1-[(4-chlorophenyl)methyl]-2-oxo-ethyl]-1-amino-cyclohexanecarboxamide], on MC4r [1], the pEC50 was 8.05 and the Emax is 15%. This compound also had a pKi at MC4r [2] of 8.40.

For `CCC(N)(CC)C(=O)N[C@H](Cc1ccc(Cl)cc1)C(=O)N1CCN(N(CC(C)C)C2CCN(C(C)=O)CC2)CC1` [Compound 7.6, N-[(1R)-2-[4-[(1-acetyl-4-piperidyl)-isobutyl-amino]piperazin-1-yl]-1-[(4-chlorophenyl)methyl]-2-oxo-ethyl]-2-amino-2-ethyl-butanamide], on MC4r [1], the pEC50 is 7.60 and the Emax was 34%. The compound further gave a pKi on MC4r [2] of 7.89.

For `CC(=O)N1CCC(N(CC(C)C)N2CCN(C(=O)[C@@H](Cc3ccc(Cl)cc3)NC(=O)C3(N)CCCCCC3)CC2)CC1` [Compound 7.7, N-[(1R)-2-[4-[(1-acetyl-4-piperidyl)-isobutyl-amino]piperazin-1-yl]-1-[(4-chlorophenyl)methyl]-2-oxo-ethyl]-1-amino-cycloheptanecarboxamide], the Emax on MC4r [1] came to 8%. At MC4r [2], this compound showed a pKi of 8.52.

On to `CNC(C)(C)C(=O)N[C@H](Cc1ccc(Cl)cc1)C(=O)N1CCN(N(CC(C)C)C2CCN(C(C)=O)CC2)CC1` [Compound 7.9, N-[(1R)-2-[4-[(1-acetyl-4-piperidyl)-isobutyl-amino]piperazin-1-yl]-1-[(4-chlorophenyl)methyl]-2-oxo-ethyl]-2-methyl-2-(methylamino)propanamide], for which the “relative efficacy, compared to NDP-α-MSH” value on MC4r [1] stood at 19%.

In the case of `CC(C)CN(C1CCN(C(=O)CO)CC1)N1CCN(C(=O)[C@@H](Cc2ccc(Cl)cc2)NC(=O)C(C)(C)N)CC1` [Compound 7.10, 2-amino-N-[(1R)-1-[(4-chlorophenyl)methyl]-2-[4-[[1-(2-hydroxyacetyl)-4-piperidyl]-isobutyl-amino]piperazin-1-yl]-2-oxo-ethyl]-2-methyl-propanamide], on MC4r [1], the negative-log EC50 (pEC50) was 8.05 and the Emax worked out at 22%. In addition, the pKi at MC4r [2] was 8.30.

Regarding `CC(=O)N1CCC(N(CC(C)C)N2CCN(C(=O)[C@@H](Cc3ccc(Cl)cc3)NC(=O)C3(C)CCCN3)CC2)CC1` (stereo partly drawn) [Compound 7.11, N-[(1R)-2-[4-[(1-acetyl-4-piperidyl)-isobutyl-amino]piperazin-1-yl]-1-[(4-chlorophenyl)methyl]-2-oxo-ethyl]-2-methyl-pyrrolidine-2-carboxamide], on MC4r [1], the pEC50 was 8.22 and the Emax was 13%. The pKi at MC4r [2] is 8.22.

“Ac-Arg-cyclo(Orn-Asn-D-Phe-Arg-Trp-Glu)-NH2 [Peptide A]”: the “Body Weight Change (%) Mean” value in the experiment on C57BL/6 male DIO mice (Day 0) is on record as 0%; in the experiment with C57BL/6 male DIO mice (Day 1), −5.69** %; with C57BL/6 male DIO mice (Day 2), −8.37** %; in the experiment with C57BL/6 male DIO mice (Day 3) it was −8.78** %. In addition, the “Food Intake - 24 Hours (g) Mean” value in the experiment with C57BL/6 male DIO mice (Day 0, 24 hours post lights out) was 0.99** g; in the experiment on C57BL/6 male DIO mice (Day 1, 24 hours post lights out) it was 1.10** g; in the experiment on C57BL/6 male DIO mice (Day 2, 24 hours post lights out) it was 1.67** g. Moreover, the “effect on feed intake at 24 hours post lights out (in words)” value with C57BL/6 male DIO mice (1 mg/kg, entirety of the study, compared with sham animals) was “significantly inhibited feed intake”. In the experiment on C57BL/6 male DIO mice (two times daily 1 mg/kg, throughout the study), the “effect on body weight (in words)” value was “decreased animal body weights”.
